ChEMBL document CHEMBL5465560, “Selectivity Literature for EUbOPEN Chemogenomic Library” (2024)

Tests used:
[1] = biological target: Inhibitor of nuclear factor kappa-B kinase subunit alpha (Homo sapiens, UniProt O15111); assay: Selectivity interaction (Kinase panel (Enzyme activity assay)) EUB0000612a CHUK
[2] = biological target: T1, Cyclin-dependent kinase 11A (Homo sapiens) (UniProt Q9UQ88); assay: Selectivity interaction (ActivX KiNativ screen (ex vivo kinase selectivity in human PBMCs)) EUB0001619a CDK11A; type: cell-based; details: PBMC, at 1 µM
T1 sequence (whole entry): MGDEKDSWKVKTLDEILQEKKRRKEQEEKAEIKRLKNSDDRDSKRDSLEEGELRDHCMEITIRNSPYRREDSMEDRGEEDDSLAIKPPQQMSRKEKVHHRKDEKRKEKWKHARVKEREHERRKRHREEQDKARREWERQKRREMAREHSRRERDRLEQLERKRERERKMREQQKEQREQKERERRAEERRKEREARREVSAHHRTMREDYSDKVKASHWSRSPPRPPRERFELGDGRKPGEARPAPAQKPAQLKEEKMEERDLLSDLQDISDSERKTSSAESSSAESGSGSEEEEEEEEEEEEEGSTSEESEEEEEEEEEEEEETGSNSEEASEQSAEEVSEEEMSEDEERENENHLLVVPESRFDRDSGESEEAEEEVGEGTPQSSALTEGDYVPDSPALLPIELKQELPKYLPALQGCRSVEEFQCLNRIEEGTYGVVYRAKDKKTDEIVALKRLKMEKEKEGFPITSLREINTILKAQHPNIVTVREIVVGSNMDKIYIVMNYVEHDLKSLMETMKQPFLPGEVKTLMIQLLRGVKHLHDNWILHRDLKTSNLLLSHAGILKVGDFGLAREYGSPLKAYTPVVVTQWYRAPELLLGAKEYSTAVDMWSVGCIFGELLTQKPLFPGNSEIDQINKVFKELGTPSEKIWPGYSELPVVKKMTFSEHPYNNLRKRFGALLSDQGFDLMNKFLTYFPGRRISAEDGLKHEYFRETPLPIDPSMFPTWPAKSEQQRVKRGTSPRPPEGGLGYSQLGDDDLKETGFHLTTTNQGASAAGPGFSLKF

[3] = biological target: T2, Ephrin type-B receptor 4 (Homo sapiens) (UniProt P54760); assay: Selectivity interaction (KinomeScan (DiscoverX)) EUB0001619a EPHB4; details: at 1 µM
T2 sequence (whole entry): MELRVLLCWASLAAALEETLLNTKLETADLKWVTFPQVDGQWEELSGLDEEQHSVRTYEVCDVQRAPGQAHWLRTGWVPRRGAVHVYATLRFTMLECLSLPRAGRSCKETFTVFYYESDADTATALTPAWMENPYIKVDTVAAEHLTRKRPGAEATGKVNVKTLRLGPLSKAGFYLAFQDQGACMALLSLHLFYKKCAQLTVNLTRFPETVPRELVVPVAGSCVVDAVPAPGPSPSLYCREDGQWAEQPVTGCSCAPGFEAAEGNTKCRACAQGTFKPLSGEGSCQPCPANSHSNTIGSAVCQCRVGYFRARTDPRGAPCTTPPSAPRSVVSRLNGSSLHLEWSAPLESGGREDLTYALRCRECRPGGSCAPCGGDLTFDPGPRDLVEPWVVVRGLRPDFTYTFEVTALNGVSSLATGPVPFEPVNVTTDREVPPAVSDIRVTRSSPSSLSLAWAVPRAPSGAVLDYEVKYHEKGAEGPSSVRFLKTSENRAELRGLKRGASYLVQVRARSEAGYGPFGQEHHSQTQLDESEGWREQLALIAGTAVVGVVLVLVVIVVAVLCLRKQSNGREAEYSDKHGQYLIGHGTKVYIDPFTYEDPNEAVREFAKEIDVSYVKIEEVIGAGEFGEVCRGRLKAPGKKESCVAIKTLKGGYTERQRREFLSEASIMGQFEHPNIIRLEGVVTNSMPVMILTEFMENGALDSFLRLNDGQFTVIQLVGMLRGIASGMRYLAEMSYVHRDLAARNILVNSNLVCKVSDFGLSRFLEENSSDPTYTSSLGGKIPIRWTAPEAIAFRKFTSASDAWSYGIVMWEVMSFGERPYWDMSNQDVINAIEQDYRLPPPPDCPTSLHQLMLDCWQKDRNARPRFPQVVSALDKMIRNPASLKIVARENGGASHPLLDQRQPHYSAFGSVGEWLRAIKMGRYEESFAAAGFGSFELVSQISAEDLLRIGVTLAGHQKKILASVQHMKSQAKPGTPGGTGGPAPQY

[4] = biological target: T3, Serine/threonine-protein kinase ULK3 (Homo sapiens) (UniProt Q6PHR2); assay: Selectivity interaction (KinomeScan (DiscoverX)) EUB0000655a ULK3; details: at 10 µM
T3 sequence (whole entry): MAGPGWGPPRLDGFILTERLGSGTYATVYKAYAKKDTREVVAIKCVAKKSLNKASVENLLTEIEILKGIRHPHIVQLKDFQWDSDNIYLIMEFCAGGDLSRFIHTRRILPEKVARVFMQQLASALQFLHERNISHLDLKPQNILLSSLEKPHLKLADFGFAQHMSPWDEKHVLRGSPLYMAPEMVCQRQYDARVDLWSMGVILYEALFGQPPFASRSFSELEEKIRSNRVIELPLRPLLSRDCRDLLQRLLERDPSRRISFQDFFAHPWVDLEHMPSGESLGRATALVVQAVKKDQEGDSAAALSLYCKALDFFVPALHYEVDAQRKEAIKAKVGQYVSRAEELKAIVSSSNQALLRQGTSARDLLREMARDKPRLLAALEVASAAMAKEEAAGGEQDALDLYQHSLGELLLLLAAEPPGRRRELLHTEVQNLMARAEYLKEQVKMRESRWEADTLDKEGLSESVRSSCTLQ

[5] = biological target: [Pyruvate dehydrogenase (acetyl-transferring)] kinase isozyme 1, mitochondrial (Homo sapiens, UniProt Q15118); assay: Selectivity interaction (Kinase panel (Z-LYTE Assay)) EUB0001632a PDK1; details: at 10 µM

Sequence of Inhibitor of nuclear factor kappa-B kinase subunit alpha (O15111 whole entry): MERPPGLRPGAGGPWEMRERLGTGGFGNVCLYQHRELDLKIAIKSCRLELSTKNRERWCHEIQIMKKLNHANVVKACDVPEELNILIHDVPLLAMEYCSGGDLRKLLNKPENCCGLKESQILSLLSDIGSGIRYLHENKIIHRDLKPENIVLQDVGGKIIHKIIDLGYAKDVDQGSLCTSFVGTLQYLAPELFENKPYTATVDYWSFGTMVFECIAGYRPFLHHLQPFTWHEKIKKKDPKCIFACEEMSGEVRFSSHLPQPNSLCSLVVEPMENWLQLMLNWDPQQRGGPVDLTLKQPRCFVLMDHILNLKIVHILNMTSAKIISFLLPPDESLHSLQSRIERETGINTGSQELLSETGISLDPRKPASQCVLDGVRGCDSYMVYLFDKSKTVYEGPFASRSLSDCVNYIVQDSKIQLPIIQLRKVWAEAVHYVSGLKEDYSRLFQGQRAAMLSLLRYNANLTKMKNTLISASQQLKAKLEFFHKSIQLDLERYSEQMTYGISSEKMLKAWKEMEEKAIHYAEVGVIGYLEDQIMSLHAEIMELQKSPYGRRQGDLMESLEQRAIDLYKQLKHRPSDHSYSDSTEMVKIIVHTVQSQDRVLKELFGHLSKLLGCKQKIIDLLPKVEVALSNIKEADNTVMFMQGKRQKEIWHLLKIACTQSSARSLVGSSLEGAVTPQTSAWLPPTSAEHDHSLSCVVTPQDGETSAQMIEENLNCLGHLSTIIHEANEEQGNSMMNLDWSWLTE

## CCc1cccc(CC)c1NC(=O)c1nn(C)c2c1CCc1cnc(Nc3ccc(C(=O)NC4CCN(C)CC4)cc3OC(F)(F)F)nc1-2
[1]
  IC50: > 10 µM

## N#Cc1cccc(-c2c[nH]c3ncnc(N4CCOCC4)c23)c1
[2]
  % of inhibition: 11%
[3]
  % of control: 100%

## CN(C)CCOc1ccc(-c2nc(-c3ccncc3)c(-c3ccc4c(c3)CC/C4=N\O)[nH]2)cc1
[4]
  % of control: 88%

## Cn1cc(-n2cnc3c(NCc4nc5cc(Cl)c(Cl)cc5[nH]4)nc(N4CCOCC4)nc32)cn1
[5]
  % of control: 9.23%
